Assay results as given in patent publication US20100227863A1, “SUBSTITUTED 3-(4-HYDROXYPHENYL)-INDOLIN-2-ONE COMPOUNDS” (TOPOTARGET A/S, priority 2007, published 2010).

These compounds were tested on MCF-7 cells (assay: In vitro cell proliferation assay (WST assay)). Details: Homo sapiens, MCF7, 72 h, total incubation time 72 h, viable cells by WST-1 reagent.
Type: cell-based
Protocol: In vitro Cell Proliferation Assay (WST Assay)
MCF-7 cells were seeded in 96-well plates at 3×10^3 cells/well in 100 μL of culture medium, 8 wells were left empty for media only controls.
After 24 h the compound titrations were performed, in a separate dilution plate, by serially diluting the compounds of general formula (I) in culture medium. A 100 μL of each dilution was added to the plated cells, this was done in triplicate, and controls (e.g. DMSO and blanks) were included. The plates were incubated for 24 h at 37° C. in a CO2 incubator. The compound titrations were repeated in a separate dilution plate after 24 h. The media plus compound from the assay plates were then aspirated. A 100 μL of media was then added to all wells, followed by 100 μL of each compound dilution. The plates were incubated for a further 48 h at 37° C. in a CO2 incubator (total incubation time 72 h). The number of viable cells was then assessed using Cell Proliferation Reagent WST-1. 10 μL of WST-1 reagent added to each well and incubated for one to four hours at 37° C. in CO2 incubator. The absorbance was measured (450 nm/690 nm).
The activity of compounds of general formula (I) in reducing the number of viable cells was calculated as:
% activity=[(S^c−B)/(S^o−B)]×100
S^c denotes signal measured in the presence of test compound, S^o denotes signal detected in the absence of compound, and B denotes background signal, measured in blank wells containing medium only. Analyse data using GraphPad Prism.

**Q.** Which IC50 does the source give for COc1ccc2c(c1C)NC(=O)C2(c1ccc(O)cc1)C1CCCCCC1 (stereo not drawn) [Compound 1087, 3-cycloheptyl-3-(4-hydroxyphenyl)-6-methoxy-7-methylindolin-2-one] here?
**A.** 4.7 nM

**Q.** Which IC50 does the source give for O=C1Nc2c(ccc(F)c2F)C1(c1ccc(O)cc1)c1ccc(F)c(F)c1 (stereo not drawn) [Compound 1022, 3-(3,4-difluorophenyl)-6,7-difluoro-3-(4-hydroxyphenyl)indolin-2-one] here?
**A.** 5.2 nM

**Q.** How did the IC50 turn out when Cc1ccc2c(c1F)NC(=O)C2(c1ccc(O)cc1)C1CCCCCC1 (stereo not drawn) [Compound 1034, 3-cycloheptyl-7-fluoro-3-(4-hydroxyphenyl)-6-methylindolin-2-one] was run?
**A.** 9.1 nM

**Q.** Cc1ccc2c(c1C)NC(=O)C2(c1ccc(O)cc1)C1CCCCCC1 (stereo not drawn) [Compound 1043, 3-cycloheptyl-3-(4-hydroxyphenyl)-6,7-dimethylindolin-2-one] was tested. Which IC50 did it give?
**A.** 19.1 nM

**Q.** For O=C1Nc2c(ccc(F)c2F)C1(c1ccc(O)cc1)C1CCCCC1 (stereo not drawn) [Compound 1010, 3-cyclohexyl-6,7-difluoro-3-(4-hydroxyphenyl)indolin-2-one], which IC50 is on record?
**A.** 7.3 nM

**Q.** Cc1ccc2c(c1Cl)NC(=O)C2(c1ccc(O)cc1)C1CCCCCC1 (stereo not drawn) [Compound 1053, 7-chloro-3-cycloheptyl-3-(4-hydroxyphenyl)-6-methylindolin-2-one] was tested. Which IC50 did it give?
**A.** 3.5 nM

**Q.** Which IC50 does the source give for Cc1c(F)ccc2c1NC(=O)C2(c1ccc(O)cc1)C1CCCCC1 (stereo not drawn) [Compound 1039, 3-cyclohexyl-6-fluoro-3-(4-hydroxyphenyl)-7-methylindolin-2-one] here?
**A.** 5.7 nM

**Q.** With O=C1Nc2c(Br)cccc2C1(c1ccc(O)cc1)C1CCCCC1 (stereo not drawn) [Compound 1062, 7-bromo-3-cyclohexyl-3-(4-hydroxyphenyl)indolin-2-one] as the compound, how does the IC50 read?
**A.** 6.8 nM

**Q.** For Cc1ccc2c(c1C)NC(=O)C2(c1ccc(O)cc1)C1CCCCC1 (stereo not drawn) [Compound 1025, 3-cyclohexyl-3-(4-hydroxyphenyl)-6,7-dimethylindolin-2-one], which IC50 is on record?
**A.** 25.9 nM

**Q.** Cc1ccc2c(c1Br)NC(=O)C2(c1ccc(O)cc1)C1CCCCC1 (stereo not drawn) [Compound 1056, 7-bromo-3-cyclohexyl-3-(4-hydroxyphenyl)-6-methylindolin-2-one] was tested. Which IC50 did it give?
**A.** 10.5 nM

**Q.** Which IC50 does the source give for O=C1Nc2c(ccc(F)c2F)C1(c1ccc(O)cc1)C1CCCCCC1 (stereo not drawn) [Compound 1018, 3-cycloheptyl-6,7-difluoro-3-(4-hydroxyphenyl)indolin-2-one] here?
**A.** 3.4 nM

**Q.** How did the IC50 turn out when O=C1Nc2c(ccc(F)c2F)C1(c1ccc(O)cc1)c1ccc(O)cc1 [Reference compound, 6,7-Difluoro-3,3-bis-(4-hydroxy-phenyl)-1,3-dihydro-indol-2-one, reference compound] was run?
**A.** 8.4 nM

**Q.** O=C1Nc2c(ccc(F)c2F)C1(c1ccc(O)cc1)c1ccc2ccccc2c1 (stereo not drawn) [Compound 1033, 6,7-difluoro-3-(4-hydroxyphenyl)-3-(naphthalene-2-yl)indolin-2-one] was tested. Which IC50 did it give?
**A.** 10.2 nM

**Q.** For Cc1cccc2c1NC(=O)C2(c1ccc(O)cc1)C1CCCCC1 (stereo not drawn) [Compound 1059, 3-cyclohexyl-3-(4-hydroxyphenyl)-7-methylindolin-2-one], which IC50 is on record?
**A.** 32.9 nM

**Q.** With O=C1Nc2c(ccc(F)c2F)C1(c1ccncc1)c1ccc(O)cc1 (stereo not drawn) [Compound 1006, 6,7-difluoro-3-(4-hydroxyphenyl)-3-(pyridin-4-yl)indolin-2-one] as the compound, how does the IC50 read?
**A.** 34.5 nM

**Q.** How did the IC50 turn out when COc1ccc2c(c1C)NC(=O)C2(c1ccc(O)cc1)C1CCCCC1 (stereo not drawn) [Compound 1046, 3-cyclohexyl-3-(4-hydroxyphenyl)-6-methoxy-7-methylindolin-2-one] was run?
**A.** 12.6 nM

**Q.** With COc1cc(C)c2c(c1)C(c1ccc(O)cc1)(C1CCCCC1)C(=O)N2 (stereo not drawn) [Compound 1070] as the compound, how does the IC50 read?
**A.** 10 nM

**Q.** Which IC50 does the source give for Cc1ccc(C2(c3ccc(O)cc3)C(=O)Nc3c2ccc(F)c3F)cc1F (stereo not drawn) [Compound 1023, 6,7-difluoro-3-(3-fluor-4-methylphenyl)-3-(4-hydroxyphenyl)indolin-2-one] here?
**A.** 4 nM

**Q.** Which IC50 does the source give for O=C1Nc2c(C(F)(F)F)cccc2C1(c1ccc(O)cc1)C1CCCCC1 (stereo not drawn) [Compound 1021, 3-cyclohexyl-3-(4-hydroxyphenyl)-7-(trifluoromethyl)indolin-2-one] here?
**A.** 17.5 nM

Same assay, conditions: total incubation time 72 h, viable cells by WST-1 reagent

**Q.** With O=C1Nc2c(ccc(F)c2F)C1(c1ccc(O)cc1)C1CCCCC1 (single isomer, unassigned) [Compound 1028, 3-cyclohexyl-6,7-difluoro-3-(4-hydroxyphenyl)indolin-2-one] as the compound, how does the IC50 read?
**A.** > 500 nM

**Q.** How did the IC50 turn out when O=C1Nc2c(ccc(F)c2F)C1(c1ccc(O)cc1)C1CCCCC1 (single isomer, unassigned) [Compound 1027, 3-cyclohexyl-6,7-difluoro-3-(4-hydroxyphenyl)indolin-2-one] was run?
**A.** 3.9 nM
